{"source": "patent US20230256094A1", "about": "“CANCER RADIOSENSITIZATION BY IN SITU FORMATION OF GOLD NANOPARTICLES AND/OR GOLD NANOCLUSTERS” (BOARD OF REGENTS, THE UNIVERSITY OF TEXAS SYSTEM, priority 2020, published 2023)", "key": {"[1]": {"test_system": "3T3 mouse fibroblast cells", "experiment": "MTS assay of radiosensitization after X-ray irradiation", "assay_type": "cell-based", "conditions": "0 Gy", "procedure": "(§1) Our initial evaluation of radiosensitization via intracellular GNP formation was performed with 3T3 mouse fibroblast cells. […] Radiosensitization with intracellular GNC formation (i.e., delivery of Au^3+) was compared with pre-fabricated albumin-coated GNCs (Albumin-GNC) prepared according to work by Xie^46 and control cells without treatment via MTS assay (FIG. 3B).\n3T3 cells were first incubated with either 1 mM of sodium chloroaurate or albumin-GNCs (0.1 mM Au^0)in cell culture media for 10 hours. Then, the cells including the nontreated control were irradiated with X-rays at dosages of 0, 4 and 6 Gy in the X-ray X-RAD 225 CX irradiator system (Precision).\nIn our future studies we will use a standard clonogenic survival assay for quantitation of the radiosensitization effect."}, "NIH3T3 cells": {"test_system": "NIH3T3 cells", "experiment": "Confocal fluorescence imaging of intracellular GNC formation", "assay_type": "cell-based, mouse", "conditions": "1 mM in cell culture media, 24 hours; 561 nm excitation, 610 nm emission", "procedure": "FIG. 3A presents fluorescence images of control NIH3T3 cells (left) and cells treated with Au^3+ (right). Both control and treated cells generated fluorescence with nuclear staining by Hoechst 33342. Fluorescent signal in the treated cells was associated with intracellular formation of gold nanoclusters (GNCs). Scale bars 20 μm.\nas §1"}, "PANC1 cells [2]": {"test_system": "PANC1 cells", "experiment": "Optimization of conditions for intracellular synthesis of fluorescent GNCs", "assay_type": "cell-based, human", "procedure": "2.3. Optimization of conditions for intracellular synthesis of GNCs. We determined optimal conditions for intracellular synthesis of fluorescent GNCs by PANC1 cells through variations in (1) how long cells condition media before addition of Au^3+ ions (FIG. 11), (2) the concentration of FBS within the media (FIG. 10), (3) concentration of added Au^3+ ions (FIGS. 13), and (4) incubation time (FIG. 12). We used the following standard conditions: 24 hr cell conditioning time, 10% FBS, 1.00 mM Au^3+, and 24 hr Au^3+ treatment duration. […] We observed significant formation of GNCs at Au^3+ concentrations between 0.20-0.75 mM, with fluorescence reduced at concentrations greater than 1.00 mM, possibly, due to formation of larger non-fluorescent gold nanoparticles (GNPs). We observed fluorescence as early as 30 minutes after addition of gold atoms with a significant increase up to 4 hours."}, "PANC1 cells [3]": {"test_system": "PANC1 cells", "experiment": "MTS viability assay", "assay_type": "cell-based", "procedure": "(§2) 2.4. Characterize cytotoxicity of gold atom treatment. An MTS viability assay was used with 0-2.0 mM Au^3+ dose range. […] MTS assay was not usable at concentrations >0.75 mM Au^3+ due to intracellular formation of larger GNPs and their absorbance interfering with the MTS results. Therefore, at higher Au^3+ we switched to AO/PI live-dead staining (FIG. 15) and JC-1 mitochondrial depolarization assays (FIG. 19). JC-1 assay indicated cell viability ˜80% for concentrations between 0.20-1.50 mM Au^3+."}, "PANC1 pancreatic cancer [4]": {"test_system": "PANC1 pancreatic cancer", "experiment": "JC-1 mitochondrial depolarization assay (cell viability)", "assay_type": "cell-based", "conditions": "0.20-1.50 mM, 24 hour", "procedure": "FIG. 19 reports cell viability as a function of 24 hour Au^3+ treatments at varied concentrations determined via JC-1 mitochondrial depolarization assay and in full cell media to PANC1 pancreatic cancer.\nThe JC-1 assay measures the charge potential of the mitochondria of cells through the fluorometric ratio of the JC-1 dye (ThermoFisher Scientific, Waltham, Mass.). JC-1 is a cationic carbocyanine dye that accumulates in mitochondria. The dye exists as a monomer at low concentrations and yields green fluorescence, similar to fluorescein. […] These characteristics make JC-1 a sensitive marker for mitochondrial membrane potential. In other words, mitochondrial depolarization is indicated by a decrease in the red/green fluorescence intensity ratio. Mitochondrial depolarization is an indicator of reduced cell viability.\nas §2"}, "PANC1 cells [5]": {"test_system": "PANC1 cells", "experiment": "Clonogenic survival assay of radiosensitization", "assay_type": "cell-based, human", "conditions": "0.20 mM, 24 hrs", "procedure": "FIG. 20 presents evidence of radiosensitization resulting from 24 hour 0.20 mM Au^3+ treatments (lower plot) compared against non-treated (upper plot) determined via clonogenic survival assay and in full cell media to PANC1 pancreatic cancer.\n(§3) 2.5. Evaluate radiosensitization efficacy and radiosensitization mechanisms for in situ synthetized GNCs. Based on the studies described in Sections 2.3-2.4, we selected the following conditions for radiosensitization studies in cell culture: 24 hr media conditioning by cells, 10% FBS (v/v) within, and 0.20 mM Au^3+ for 24 hrs.\nA standard clonogenic assay was used to evaluate radiosensitization efficacy of intracellular synthetized GNC in PANC1 cells (FIG. 20). […] Dose enhancement factor at 10% surviving fraction (DEF10%) was calculated at 1.317 indicative of a strong radiosensitization in Au^3+ treated cells."}, "PANC1 pancreatic cancer [6]": {"test_system": "PANC1 pancreatic cancer", "experiment": "gamma H2AX foci quantification of double stranded DNA breaks", "assay_type": "cell-based, human", "procedure": "FIG. 21 reports on a mechanistic study of radiosensitization quantifying gamma H2AX foci through fluorescent antibody staining measured at 0, 4, and 24 hours, resulting from 24 hour 0.20 mM Au^3+ treatments (lower three) compared against non-treated (upper three) combined with either 0 Gy or 8 Gy x-ray irradiation. Treatments are in full cell media to PANC1 pancreatic cancer.\nas §3\nFurther, we characterized the mechanisms of radiosensitization through (i) quantification of double stranded DNA breaks via y-H2AX Foci (FIG. 21), (ii) mitochondrial polarization via JC-1 assay (FIG. 22), (iii) NADP total (FIG. 23) and NADP:NADPH ratio (FIG. 24) via NADP(H) assay, and (iv) peroxidation production via TBARS assay (FIG. 25)."}}}
{"smiles": "[Au+3].[Cl-].[Cl-].[Cl-].[Cl-].[H+]", "note": "[Au^3+, chloroauric acid]", "values": [{"measurement": "cell viability / cytotoxicity, treated vs untreated cells", "setting": "[1]", "value": "no difference in cell viability"}, {"measurement": "cell viability / cytotoxicity, treated vs untreated cells", "setting": "[1]; listed as chloroauric acid", "value": "not cytotoxic"}, {"measurement": "intracellular formation of GNCs (confocal fluorescence)", "setting": "NIH3T3 cells", "value": "uniform formation of GNCs"}, {"measurement": "earliest time at which fluorescence was observed after addition", "setting": "PANC1 cells [2]; 1.00 mM, 10% FBS", "value": 30, "unit": "min"}, {"measurement": "time up to which fluorescence increased significantly", "setting": "PANC1 cells [2]; 1.00 mM, 10% FBS", "value": "up to 4 hours"}, {"measurement": "Au^3+ concentrations at which fluorescence is reduced", "setting": "PANC1 cells [2]; 24 hr treatment, 10% FBS", "value": "greater than 1.00 mM"}, {"measurement": "Au^3+ concentrations with significant formation of GNCs", "setting": "PANC1 cells [2]; 24 hr treatment, 10% FBS", "value": "0.20 to 0.75", "unit": "mM"}, {"measurement": "change of GNC synthesis with duration of media conditioning or FBS concentration", "setting": "PANC1 cells [2]; media conditioning up to 72-hr, FBS 0-10% (v/v)", "value": "No significant changes"}, {"measurement": "impact on viability (MTS)", "setting": "PANC1 cells [3]; 0.0-0.20 mM", "value": "no impacts on viability"}, {"measurement": "cell viability (MTS)", "setting": "PANC1 cells [3]; 0.75 mM", "value": "~81", "unit": "%"}, {"measurement": "cell viability (JC-1)", "setting": "PANC1 pancreatic cancer [4]", "value": "~80", "unit": "%"}, {"measurement": "Dose enhancement factor at 10% surviving fraction (DEF10%)", "setting": "PANC1 cells [5]", "value": 1.317}, {"measurement": "average surviving fraction", "setting": "PANC1 cells [5]; 2 Gy", "value": 47.3, "unit": "%"}, {"measurement": "average surviving fraction", "setting": "PANC1 cells [5]; 4 Gy", "value": 7.3, "unit": "%"}, {"measurement": "average surviving fraction", "setting": "PANC1 cells [5]; 6 Gy", "value": 2.2, "unit": "%"}, {"measurement": "fewer DNA breaks than in untreated control", "setting": "PANC1 pancreatic cancer [6]; 4 hrs after 8 Gy irradiation, 0.20 mM, 24 hrs", "value": 29, "unit": "%"}, {"measurement": "repair of DNA breaks", "setting": "PANC1 pancreatic cancer [6]; 24 hr post-irradiation, 8 Gy", "value": "no significant repair"}]}
